Key:
Type in all cases: in vivo, mouse (male Balb/c)
salivary gland [1] = experiment: Salivary fluid secretion after subcutaneous bolus administration; settings: mice; for dose at which statistically significant acceleration of salivary fluid secretion was attained / time after administration at which secretion amount of salivary and tear fluid reached maximum: s.c. bolus; for time after administration at which secretion amount of salivary and tear fluid reached maximum: every dose
Experimental: (§1) Male Balb/c mice were used in the test.
(§2) The compound A was dissolved in physiological saline to a concentration of 1, 3, 10, 30 or 100 mg/5 ml, and 5 ml/kg of the drug solution was administered under the dorsal skin. Secreted amounts of salivary and tear fluid were measured just before the administration of compound A and 10, 20, 30, 40 and 50 minutes after the administration. The sweating action was measured 10 minutes after the administration. Also, the growth acceleration action was measured 6 hours after the administration.
as §2, with “Pilocarpine was dissolved” for “The compound A was dissolved”, “concentration of 0.03, 0.1, 0.3, 1, 3 or 10 mg/5 ml, or cevimeline to a concentration of 0.3, 1, 3,” for “concentration of 1, 3,”, “administration of pilocarpine or cevimeline and 10,” for “administration of compound A and 10,”
(§3) The mouth of a mouse was wiped with a cotton ball whose weight had been measured in advance, and the incremental weight was used as the amount of salivary fluid. Also at the same time, a thread for tear fluid measurement (Zone Quick; Menicon) used on the Schirmer test was inserted into the lower eyelid conjunctival sac, and the length of colored part was measured and used as the amount of tear fluid. From the measurement results, area under the secreted amount-versus-time curve (AUC) was calculated.
(§4) All of the test results were expressed as fold increases of the reactions of the drug-administered group versus those of the vehicle-administered group, and comparison between the drug-administered groups and the vehicle-administered group was carried out using Dunnett's t-test. P<0.05 was considered significant. Results

lacrimal gland [2] = experiment: Tear fluid secretion after subcutaneous bolus administration; settings: mice; for dose at which statistically significant acceleration of tear fluid secretion was attained: s.c. bolus
Experimental: as §1, §2
as §2, with “Pilocarpine was dissolved” for “The compound A was dissolved”, “concentration of 0.03, 0.1, 0.3, 1, 3 or 10 mg/5 ml, or cevimeline to a concentration of 0.3, 1, 3,” for “concentration of 1, 3,”, “administration of pilocarpine or cevimeline and 10,” for “administration of compound A and 10,”
as §3, §4

[3] = tested on: ornithine decarboxylase (ODC) activity of parotid salivary gland; experiment: Ornithine decarboxylase activity of parotid salivary gland after subcutaneous bolus administration; settings: mice
Experimental: (§5) Male Balb/c mice were used in the test. […] Also, the growth acceleration action was measured 6 hours after the administration. […] Also, the growth acceleration action was measured 6 hours after the administration. […] Thus, it can be easily analogized that the ODC activity becomes a useful index of cell growth and function of the exocrine gland. Accordingly, the ability of each drug to activate glandular tissue was evaluated by measuring ODC activity of parotid salivary gland and extra-orbital lacrimal gland. The amount of ^14CO2 formed from L-^14C-ornithine was used as the index of ODC activity. A mouse anesthetized with diethyl ether was sacrificed by bleeding, and left and right parotid salivary glands and extra-orbital lacrimal glands were isolated. After removing the attached connective tissue and fat, the isolated glandular tissues homogenized in 1.5 ml of a homogenate buffer (25 mM Tris-HCl buffer (pH 7.4) containing 0.1 mM ethylenediaminetetraacetic acid, 0.4 mM pyridoxal phosphate, 5 mM dithiothreitol and 0.1% Brij 35®) using a Potter type homogenizer and then centrifuged at 4° C., 15,000 g for 30 minutes, and the supernatant was used as the enzyme fraction. […] The ^14CO2 generated by the reaction was captured by 150 μl of 1 N NaOH soaked in a glass filter. Radioactivity of the ^14CO2 captured on the glass filter was detected using a liquid scintillation counter. The enzyme activity (pmol ^14CO2/mg protein/hour) was calculated from the measured results. All of the test results were expressed as fold increases of the reactions of the drug-administered group versus those of the vehicle-administered group, and comparison between the drug-administered groups and the vehicle-administered group was carried out using Dunnett's t-test. P<0.05 was considered significant. Results

[4] = tested on: ornithine decarboxylase (ODC) activity of extra-orbital lacrimal gland; experiment: Ornithine decarboxylase activity of extra-orbital lacrimal gland after subcutaneous bolus administration; settings: mice
Experimental: as §5

salivary gland [5] = experiment: Salivary fluid secretion during subcutaneous continuous administration (osmotic pump); settings: mice; for dose showing statistically significant salivary fluid secretion acceleration: cumulative quantity vs vehicle group; for Salivary fluid: AUC of secreted amount
Experimental: as §1
(§6) The compound A was dissolved in physiological saline to a concentration of 0.625, 1.25, 2.5, 5.0, 10 or 20 mg/200 μl, and filled each pump (Alzet mini-osmotic pump 2001D, 8 μl/h, 1 day; DURECT Corporation) with about 200 μl portions It means, that is, each pump releases at a rate of 0.025, 0.05, 0.1, 0.2, 0.4 or 0.8 mg compound A/h, respectively. About 5 mm of dorsal epidermis of a mouse anesthetized with diethyl ether was incised, the osmotic pump already filled with the compound A was subcutaneously implanted, and then the skin was stitched. Secreted amounts of salivary and tear fluid and sweating were periodically measured from just before the implantation of pump until 32 hours after the administration. The ornithine decarboxylase activity was measured 10 hours after the implantation.
(§7) Pilocarpine was dissolved in physiological saline to a concentration of 0.039, 0.078, 0.16 or 0.31 mg/200 μl, or cevimeline to a concentration of 0.16, 0.31, 0.63 or 1.3 mg/200 μl, and filled the osmotic pump (Alzet mini-osmotic pump 2001 D, 8 μl/h, 1 day; DURECT Corporation) with about 200 μl portions. It means, that is, each pump releases at a rate of 0.00156, 0.00312, 0.0064 or 0.0124 mg/h (pilocarpine) or 0.0064, 0.0124, 0.0252 or 0.05 mg/h (cevimeline). About 5 mm of dorsal epidermis of a mouse anesthetized with diethyl ether was incised, the osmotic pump already filled with pilocarpine or cevimeline was subcutaneously implanted, and then the skin was stitched. Secreted amounts of salivary and tear fluid and sweating were periodically measured from just before the implantation of pump until 32 hours after the administration. The ornithine decarboxylase activity was measured 10 hours after the implantation.
as §3, §4

lacrimal gland [6] = experiment: Tear fluid secretion during subcutaneous continuous administration (osmotic pump); settings: mice; for Tear fluid: AUC of secreted amount
Experimental: as §1, §6, §7, §3, §4

[7] = s.c. bolus 0.3 mg/kg, 10 minutes after administration (Table 4)
[8] = s.c. bolus 1 mg/kg, 10 minutes after administration (Table 4)
[9] = s.c. bolus 3 mg/kg, 10 minutes after administration (Table 4)
[10] = s.c. bolus 10 mg/kg, 10 minutes after administration (Table 4)
[11] = 10 minutes after administration
[12] = s.c. bolus 10 mg/kg, ODC activity 6 hours after administration (Table 4)
[13] = s.c. bolus 30 mg/kg, ODC activity 6 hours after administration (Table 4)
[14] = s.c. bolus 100 mg/kg, ODC activity 6 hours after administration (Table 4)
[15] = s.c. osmotic pump 0.16 mg (0.0064 mg/h)
[16] = s.c. osmotic pump 0.31 mg (0.0124 mg/h)
[17] = s.c. osmotic pump 0.63 mg (0.0252 mg/h)
[18] = s.c. osmotic pump 1.25 (0.05 mg/h)
[19] = s.c. bolus 1 mg/kg, 10 minutes after administration
[20] = s.c. bolus 3 mg/kg, 10 minutes after administration
[21] = s.c. bolus 10 mg/kg, 10 minutes after administration
[22] = s.c. bolus 10 mg/kg, ODC activity 6 hours after administration
[23] = s.c. bolus 30 mg/kg, ODC activity 6 hours after administration
[24] = s.c. bolus 100 mg/kg, ODC activity 6 hours after administration
[25] = s.c. osmotic pump 0.63 mg (0.025 mg/h)
[26] = s.c. osmotic pump 1.25 mg (0.05 mg/h)
[27] = s.c. osmotic pump 2.5 mg (0.1 mg/h)
[28] = s.c. osmotic pump 5 mg (0.2 mg/h)
[29] = s.c. osmotic pump 10 mg (0.4 mg/h)

## CC1OC2(CS1)CN1CCC2CC1 (centres unmarked) [cevimeline]
Salivary gland [1]; [7]
  Salivary fluid: 1.2 ± 0.13 fold increase vs. the vehicle group
Salivary gland [1]; [8]
  Salivary fluid: 2.0 ± 0.22 fold increase vs. the vehicle group
Salivary gland [1]; [9]
  Salivary fluid: 2.1 ± 0.42 fold increase vs. the vehicle group
Salivary gland [1]; [10]
  Salivary fluid: 3.1 ± 0.50 fold increase vs. the vehicle group
Salivary gland [1]; [11]
  dose at which statistically significant acceleration of salivary fluid secretion was attained: 3 mg/kg
Salivary gland [1]
  time after administration at which secretion amount of salivary and tear fluid reached maximum: 10 min
Lacrimal gland [2]; [7]
  Tear fluid: 1.1 ± 0.14 fold increase vs. the vehicle group
Lacrimal gland [2]; [8]
  Tear fluid: 1.1 ± 0.14 fold increase vs. the vehicle group
Lacrimal gland [2]; [9]
  Tear fluid: 1.1 ± 0.16 fold increase vs. the vehicle group
Lacrimal gland [2]; [10]
  Tear fluid: 3.6 ± 0.88 fold increase vs. the vehicle group
Lacrimal gland [2]; [11]
  dose at which statistically significant acceleration of tear fluid secretion was attained: 10 mg/kg
[3]; [12]
  Glandular cell growth Salivary gland: 1.7 ± 065 fold increase vs. the vehicle group
[3]; [13]
  Glandular cell growth Salivary gland: 1.1 ± 0.33 fold increase vs. the vehicle group
[3]; [14]
  Glandular cell growth Salivary gland: 1.1 ± 0.33 fold increase vs. the vehicle group
[4]; [12]
  Glandular cell growth Lacrimal gland: 1.2 ± 0.90 fold increase vs. the vehicle group
[4]; [13]
  Glandular cell growth Lacrimal gland: 1.2 ± 0.52 fold increase vs. the vehicle group
[4]; [14]
  Glandular cell growth Lacrimal gland: 1.7 ± 0.79 fold increase vs. the vehicle group
Salivary gland [5]; s.c. continuous administration
  dose showing statistically significant salivary fluid secretion acceleration: 0.63 mg
Salivary gland [5]; [15]
  Salivary fluid: 0.98 ± 0.10 fold increase vs. the solvent group
Salivary gland [5]; [16]
  Salivary fluid: 1.0 ± 0.12 fold increase vs. the solvent group
Salivary gland [5]; [17]
  Salivary fluid: 1.5 ± 0.11 fold increase vs. the solvent group
Salivary gland [5]; [18]
  Salivary fluid: 1.7 ± 0.17 fold increase vs. the solvent group
Lacrimal gland [6]; [15]
  Tear fluid: 1.3 ± 0.05 fold increase vs. the solvent group
Lacrimal gland [6]; [16]
  Tear fluid: 1.1 ± 0.09 fold increase vs. the solvent group
Lacrimal gland [6]; [17]
  Tear fluid: 1.4 ± 0.18 fold increase vs. the solvent group
Lacrimal gland [6]; [18]
  Tear fluid: 1.3 ± 0.04 fold increase vs. the solvent group

## C=C1CC2(CCN(C)CC2)O[C@H]1C [compound A, (−)-(S)-2,8-dimethyl-3-methylene-1-oxa-8-azaspiro[4.5]decane]
Salivary gland [1]; [19]
  Salivary fluid: 1.5 ± 0.10 fold increase vs. the vehicle group
Salivary gland [1]; [20]
  Salivary fluid: 1.8 ± 0.13 fold increase vs. the vehicle group
Salivary gland [1]; [21]
  Salivary fluid: 3.3 ± 1.1 fold increase vs. the vehicle group
Salivary gland [1]; [11]
  dose at which statistically significant acceleration of salivary fluid secretion was attained: 10 mg/kg
Salivary gland [1]
  time after administration at which secretion amount of salivary and tear fluid reached maximum: 10 min
Lacrimal gland [2]; [19]
  Tear fluid: 1.3 ± 0.11 fold increase vs. the vehicle group
Lacrimal gland [2]; [20]
  Tear fluid: 1.4 ± 0.15 fold increase vs. the vehicle group
Lacrimal gland [2]; [21]
  Tear fluid: 2.2 ± 0.25 fold increase vs. the vehicle group
Lacrimal gland [2]; [11]
  dose at which statistically significant acceleration of tear fluid secretion was attained: 10 mg/kg
[3]; [22]
  Glandular cell growth Salivary gland: 0.71 ± 0.05 fold increase vs. the vehicle group
[3]; [23]
  Glandular cell growth Salivary gland: 0.72 ± 0.11 fold increase vs. the vehicle group
[3]; [24]
  Glandular cell growth Salivary gland: 2.8 ± 0.72 fold increase vs. the vehicle group
[4]; [22]
  Glandular cell growth Lacrimal gland: 0.99 ± 0.24 fold increase vs. the vehicle group
[4]; [23]
  Glandular cell growth Lacrimal gland: 2.2 ± 0.43 fold increase vs. the vehicle group
[4]; [24]
  Glandular cell growth Lacrimal gland: 2.3 ± 0.07 fold increase vs. the vehicle group
Salivary gland [5]; s.c. continuous administration
  dose at which salivary fluid secretion acceleration action reached maximum: 5 mg
  time after osmotic pump implantation at which secreted amount of tear and salivary fluid became maximum: 10 h
  time after osmotic pump implantation at which secreted amount of tear and salivary fluid started to increase: 4 h
  time after which secretion acceleration action almost disappeared: 32 h
  time until which increased secretion of tear and salivary fluid continued: 26 h
  dose showing statistically significant salivary fluid secretion acceleration: ≥ 2.5 mg
Salivary gland [5]; [25]
  Salivary fluid: 0.84 ± 0.11 fold increase vs. the vehicle group
Salivary gland [5]; [26]
  Salivary fluid: 1.4 ± 0.11 fold increase vs. the vehicle group
Salivary gland [5]; [27]
  Salivary fluid: 2.1 ± 0.13 fold increase vs. the vehicle group
Salivary gland [5]; [28]
  Salivary fluid: 2.8 ± 0.21 fold increase vs. the vehicle group
Salivary gland [5]; [29]
  Salivary fluid: 3.4 ± 0.35 fold increase vs. the vehicle group
Lacrimal gland [6]; s.c. continuous administration
  dose at which tear fluid secretion acceleration action reached maximum: 5 mg
Lacrimal gland [6]; s.c. continuous administration, cumulative quantity vs vehicle group
  dose showing statistically significant tear fluid secretion acceleration: ≥ 2.5 mg
Lacrimal gland [6]; [25]
  Tear fluid: 1.3 ± 0.11 fold increase vs. the vehicle group
Lacrimal gland [6]; [26]
  Tear fluid: 1.3 ± 0.011 fold increase vs. the vehicle group
Lacrimal gland [6]; [27]
  Tear fluid: 1.9 ± 0.10 fold increase vs. the vehicle group
Lacrimal gland [6]; [28]
  Tear fluid: 2.3 ± 0.08 fold increase vs. the vehicle group
Lacrimal gland [6]; [29]
  Tear fluid: 1.6 ± 0.08 fold increase vs. the vehicle group
